Assay: Nasogastric Tube Compatibility Study, impurities (HPLC)
Assay type: physicochemical
Procedure: Analytical HPLC Compatibility Study experiments (Example 2) were performed on Agilent 1200 Series, or equivalent; Waters XBridge C18 column, 5 μm 150×4.6 mm; mobile phase: Solvent A: 50 mM ammonium bicarbonate, pH 8.0; Solvent B: acetonitrile/methanol, 80:20 (v/v); Flow rate: 1 mL/min; Inj. Volume 60 μL; Autosampler Temp.: 5° C.; column temperature: 40° C.; the pooled limit of quantitation was 0.05% of 0.68 mg/mL; detection UV at 210 nm; sample concentration (as free base) assay: 0.034 mg/mL, impurity: 0.34 mg/mL; standard concentration (as free base) 0.034 mg/mL; PLOQ Std. 0.05% of 0.34 mg/mL; SST solution, 1% of 0.34 mg/mL (Impurities A, C, D, E, F, and G); diluent for standards 0.1N HCl; diluent for samples 0.1N HCl; run time, 40 min; gradient method: 0 min mobile phase A (90%) and mobile phase B (10%) to 30 min mobile phase A (0%), and mobile phase B (100%); then 30.1 min to 40 min mobile phase A (90%), mobile phase B (10%).
Three samples of pimavanserin in water (n=3) were prepared as follows. The content of one capsule was dropped into a 100 mL bottle, and the empty capsule shell was discarded. Approximately 40 mL of water was added into the bottle, and the bottle was swirled until the contents were disintegrated. Syringes were secured approximately 1 meter above the benchtop, and the plungers were removed. The Hydromer coating on the weighted top of the NG tube was activated by submerging the weight assembly in water for 10 seconds. The NG tube was flushed with 20 mL of water, and remaining water in the syringe and the NG tube was expelled with the help of the syringe plunger. The weighted tip of the NG tube was placed into 100 mL volumetric flasks on the benchtop.
For each sample, the aqueous dispersion was slowly poured into the syringe, allowing it to drain through the NG tube under gravity into the 100 mL collection volumetric flask. The original bottle containing the aqueous suspension of pimavanserin capsules was rinsed twice with 15 mL of water into the same syringe/NG tube system. The dispersion remaining in the syringe and NG tube was expelled with the help of the syringe plunger. Each flask was diluted to volume with 0.33N HCl (to make a final 0.1 N HCl concentration in the flask). The samples were sonicated for 15 minutes with intermediate shaking. A stir bar was added to the flask and the solution was stirred for 2 hours. An aliquot of each solution was centrifuged for 5 minutes at 10000 rom. The supernatant was transferred to a HPLC vial and injected for impurity analysis.
A “control” sample was prepared following the sample preparation procedure described above except it was not passed through a syringe/NG system. The content of one capsule was dropped into a 100 mL volumetric flask, and the empty capsule shell was discarded. Next 70 mL of water was added into the flask and swirled until the contents were completely disintegrated. The flask was diluted to volume with 0.33 N HCl (to make final 0.1N HCl concentration). The sample was sonicated for 15 minutes with intermediate shaking. A stir bar was dropped into the flask, and the solution was stirred for 2 hours. An aliquot was taken and centrifuged for 5 minutes at 10000 rpm. The supernatant was transferred to a HPLC vial and injected for impurity analysis.

Q: With CC(C)COc1ccc(CNC(=O)N(Cc2ccc(F)cc2)C2CCN(C)CC2)cc1 [Pimavanserin, N-(4-Fluorophenylmethyl)-N-(1-methylpiperidin-4-yl)-N′-(4-(2-methylpropyloxy)phenylmethyl)carbamide] as the compound, how does the Imp-D (NG Tube Control) read?
A: 0.13 % w/w

Q: What about the “Impurity RRT-0.36” value (NG Tube Control) of the same compound?
A: 0.05 % w/w

Q: What about the “Impurity RRT-0.54” value (NG Tube Control) of the same compound?
A: 0.07 % w/w

Q: What about the “Impurity RRT-0.96” value (NG Tube Control) of the same compound?
A: 0.06 % w/w

Q: What about the “Impurity RRT-0.99” value (NG Tube Control) of the same compound?
A: 0.07 % w/w

Q: What about the “Total degradation products and impurities” value (NG Tube Control) of the same compound?
A: 0.38 % w/w

Q: And the Imp-D (NG Tube Mean (n = 3))?
A: 0.13 % w/w

Q: What about the “Impurity RRT-0.36” value (NG Tube Mean (n = 3)) of the same compound?
A: 0.06 % w/w

Q: And the “Impurity RRT-0.54” value (NG Tube Mean (n = 3))?
A: 0.07 % w/w

Q: What about the “Impurity RRT-0.85” value (NG Tube Mean (n = 3)) of the same compound?
A: 0.05 % w/w

Q: And the “Impurity RRT-0.96” value (NG Tube Mean (n = 3))?
A: 0.06 % w/w

Q: And the “Impurity RRT-0.99” value (NG Tube Mean (n = 3))?
A: 0.06 % w/w

Q: And the “Impurity RRT-1.11” value (NG Tube Mean (n = 3))?
A: 0.05 % w/w

Q: What about the “Total degradation products and impurities” value (NG Tube Mean (n = 3)) of the same compound?
A: 0.48 % w/w

Q: And the Imp-D (NG Tube N = 1)?
A: 0.13 % w/w

Q: And the “Impurity RRT-0.36” value (NG Tube N = 1)?
A: 0.05 % w/w

Q: What about the “Impurity RRT-0.54” value (NG Tube N = 1) of the same compound?
A: 0.07 % w/w

Q: And the “Impurity RRT-0.85” value (NG Tube N = 1)?
A: 0.05 % w/w

Q: And the “Impurity RRT-0.96” value (NG Tube N = 1)?
A: 0.05 % w/w

Q: And the “Impurity RRT-0.99” value (NG Tube N = 1)?
A: 0.07 % w/w

Q: What about the “Total degradation products and impurities” value (NG Tube N = 1) of the same compound?
A: 0.42 % w/w

Q: What about the Imp-D (NG Tube N = 2) of the same compound?
A: 0.14 % w/w

Q: What about the “Impurity RRT-0.36” value (NG Tube N = 2) of the same compound?
A: 0.06 % w/w

Q: What about the “Impurity RRT-0.54” value (NG Tube N = 2) of the same compound?
A: 0.07 % w/w

Q: What about the “Impurity RRT-0.96” value (NG Tube N = 2) of the same compound?
A: 0.06 % w/w

Q: What about the “Impurity RRT-0.99” value (NG Tube N = 2) of the same compound?
A: 0.07 % w/w

Q: And the “Impurity RRT-1.11” value (NG Tube N = 2)?
A: 0.05 % w/w

Q: What about the “Total degradation products and impurities” value (NG Tube N = 2) of the same compound?
A: 0.45 % w/w

Q: What about the Imp-D (NG Tube N = 3) of the same compound?
A: 0.13 % w/w

Q: And the “Impurity RRT-0.99” value (NG Tube N = 3)?
A: 0.05 % w/w

Q: And the “Total degradation products and impurities” value (NG Tube N = 3)?
A: 0.18 % w/w

Q: What about the “impurity profile of compatibility samples versus control sample” value (NG tube) of the same compound?
A: matched

Q: What about the unknown impurities (stability or recovery portions of the studies) of the same compound?
A: < 0.1%
